From PMC3880142 (ACS chemical biology, 2013)

Target: T1, CadD (Leptospira interrogans, UniProt Q72V44)
T1 sequence (Q72V44 1-442): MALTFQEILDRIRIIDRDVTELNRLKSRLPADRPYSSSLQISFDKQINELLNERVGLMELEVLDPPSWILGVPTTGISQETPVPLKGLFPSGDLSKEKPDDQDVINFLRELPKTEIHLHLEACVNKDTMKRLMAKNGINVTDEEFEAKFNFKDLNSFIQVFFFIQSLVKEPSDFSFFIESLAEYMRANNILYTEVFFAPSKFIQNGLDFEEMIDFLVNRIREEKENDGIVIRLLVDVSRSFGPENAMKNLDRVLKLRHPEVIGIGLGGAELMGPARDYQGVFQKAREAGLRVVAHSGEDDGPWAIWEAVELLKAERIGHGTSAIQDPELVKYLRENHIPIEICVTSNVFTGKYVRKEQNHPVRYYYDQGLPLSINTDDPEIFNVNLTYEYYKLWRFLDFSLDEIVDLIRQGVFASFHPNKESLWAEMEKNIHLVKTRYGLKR
Assay: UV spectrophotometric cAMP deamination at […] nm, inhibition
Type: biochemical

## O=P1(O)OC[C@H]2O[C@@H](n3cnc4cncnc43)[C@H](O)[C@@H]2O1 [cPuMP]
  Ki: 1.3 ± 0.5 µM
